# ChEMBL document CHEMBL1201862, “PubChem BioAssay data set” (2004)
# The source made the active and inactive calls.
# Experiments:
# [1] = biological target: Heat shock protein HSP 90-alpha (Homo sapiens, UniProt P07900); type: functional, organism-based
# [2] = biological target: T1, Polyadenylate-binding protein 1 (Homo sapiens, UniProt P11940); assay: MLLE binding blockers, Cy5 peptide tracer – biochemical, fluorescence polarization, Cy5-PAM2 peptide, secondary, miRNA deadenylation inhibitor project, dose response (AID 602260); type: functional; settings: read-out: IC50_Mean
# [3] = biological target: T1, Polyadenylate-binding protein 1; assay: MLLE domain peptide-binding blockers, IC50 – biochemical, fluorescence polarization, FITC-PAM2 peptide, dose response (AID 602259); type: functional; settings: read-out: IC50_Mean
# Streptokinase A = biological target: T2, Streptokinase A (Streptococcus pyogenes serotype M1, UniProt P10520); assay: viability-normalized secreted streptokinase activity reduction – plasminogen activation absorbance, OD405, dose response (AID 1914); type: functional, Streptococcus pyogenes M1 GAS;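 note: secreted streptokinase activity via plasminogen activation per viability signal from cell pellet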
# T2 sequence (P10520 whole entry): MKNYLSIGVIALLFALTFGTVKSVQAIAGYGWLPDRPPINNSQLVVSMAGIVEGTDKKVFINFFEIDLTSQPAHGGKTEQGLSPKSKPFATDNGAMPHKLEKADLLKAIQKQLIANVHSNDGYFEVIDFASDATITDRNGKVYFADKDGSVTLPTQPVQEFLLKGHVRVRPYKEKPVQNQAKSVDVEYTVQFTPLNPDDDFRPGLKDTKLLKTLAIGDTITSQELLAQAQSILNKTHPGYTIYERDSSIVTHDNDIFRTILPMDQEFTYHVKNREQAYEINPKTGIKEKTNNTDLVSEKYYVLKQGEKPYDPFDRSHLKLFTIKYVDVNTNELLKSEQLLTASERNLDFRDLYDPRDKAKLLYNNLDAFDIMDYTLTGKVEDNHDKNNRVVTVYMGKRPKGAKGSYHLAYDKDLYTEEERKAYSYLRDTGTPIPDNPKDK
# [4] = viability of HCT116 lacking mutant beta-catenin – cell-based, human colon tumor, dose response (AID 1045); type: functional;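 note: HCT116 colon tumor cells with beta catenin knocked out; cells exposed to compound for 60 hours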
# [5] = viability of PTEN-deleted HCT116 cells – cell-based, HCT116 PTEN knockout, dose response (AID 1047); type: functional;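 note: HCT116 colon tumor cells with PTEN knocked out; cells exposed to compound for 60 hours before readout; potency for loss of cell viability measured by luminescence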
# [6] = biological target: T3, RNA-binding protein pos-1 (Caenorhabditis elegans, UniProt G5EF15); assay: disruptors of C. elegans POS-1 RNA interaction – biochemical, fluorescence polarization, dose response (AID 1964);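 note: purified POS-1 fused to maltose binding protein made in E. coli; potency of compounds blocking POS-1 binding to fluorescent RNA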
# T3 sequence (G5EF15 whole entry): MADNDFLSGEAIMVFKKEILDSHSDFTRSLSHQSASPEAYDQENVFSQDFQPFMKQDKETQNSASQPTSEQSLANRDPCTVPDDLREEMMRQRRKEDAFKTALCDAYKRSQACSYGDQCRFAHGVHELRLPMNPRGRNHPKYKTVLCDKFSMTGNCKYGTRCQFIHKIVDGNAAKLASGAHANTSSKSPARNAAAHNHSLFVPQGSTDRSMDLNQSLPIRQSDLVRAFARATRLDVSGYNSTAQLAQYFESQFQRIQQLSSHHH
# [7] = biological target: T4, Zinc finger protein mex-5 (Caenorhabditis elegans, UniProt Q9XUB2); assay: potency of MEX-5 RNA-binding blockers – biochemical, C. elegans, fluorescence polarization, dose response (AID 1960)
# T4 sequence (Q9XUB2 whole entry): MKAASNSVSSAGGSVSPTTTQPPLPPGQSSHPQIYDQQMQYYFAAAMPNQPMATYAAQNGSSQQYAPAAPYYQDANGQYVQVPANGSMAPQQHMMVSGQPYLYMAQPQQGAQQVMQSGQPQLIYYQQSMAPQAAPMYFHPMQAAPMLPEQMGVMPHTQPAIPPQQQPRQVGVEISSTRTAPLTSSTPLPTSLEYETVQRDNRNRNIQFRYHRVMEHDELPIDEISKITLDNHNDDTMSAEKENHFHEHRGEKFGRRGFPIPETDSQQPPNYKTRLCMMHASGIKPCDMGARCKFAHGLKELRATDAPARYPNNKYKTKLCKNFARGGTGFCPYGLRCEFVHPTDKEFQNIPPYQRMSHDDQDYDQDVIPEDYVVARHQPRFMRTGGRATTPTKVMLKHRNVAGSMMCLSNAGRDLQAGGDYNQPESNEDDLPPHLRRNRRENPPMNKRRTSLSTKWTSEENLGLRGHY
# Nonstructural protein 1 = Nonstructural protein 1 (Influenza A virus, UniProt Q194T2); type: functional, Influenza A virus (A/California/07/2009(H1N1))
# [8] = biological target: T5, Corticotropin-releasing factor receptor 2/Corticotropin-releasing factor-binding protein (Homo sapiens, UniProt P24387+Q13324); assay: activators of CRF receptor 2 with binding protein – uHTS hits, confirmation (AID 602473); type: functional; settings: read-out: EC50_Mean
# T5 sequence (Q13324 whole entry): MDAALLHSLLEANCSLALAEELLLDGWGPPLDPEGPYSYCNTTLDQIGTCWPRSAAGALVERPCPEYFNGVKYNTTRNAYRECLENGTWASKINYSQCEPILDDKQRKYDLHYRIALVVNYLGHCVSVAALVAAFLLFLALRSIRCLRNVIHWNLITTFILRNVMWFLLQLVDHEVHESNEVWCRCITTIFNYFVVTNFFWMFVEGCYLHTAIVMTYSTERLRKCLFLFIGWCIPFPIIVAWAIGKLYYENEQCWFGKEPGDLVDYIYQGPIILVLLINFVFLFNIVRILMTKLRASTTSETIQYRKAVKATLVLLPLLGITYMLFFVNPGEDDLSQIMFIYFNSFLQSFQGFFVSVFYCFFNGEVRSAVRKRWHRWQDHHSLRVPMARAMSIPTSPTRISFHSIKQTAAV
# T5 sequence (P24387 whole entry): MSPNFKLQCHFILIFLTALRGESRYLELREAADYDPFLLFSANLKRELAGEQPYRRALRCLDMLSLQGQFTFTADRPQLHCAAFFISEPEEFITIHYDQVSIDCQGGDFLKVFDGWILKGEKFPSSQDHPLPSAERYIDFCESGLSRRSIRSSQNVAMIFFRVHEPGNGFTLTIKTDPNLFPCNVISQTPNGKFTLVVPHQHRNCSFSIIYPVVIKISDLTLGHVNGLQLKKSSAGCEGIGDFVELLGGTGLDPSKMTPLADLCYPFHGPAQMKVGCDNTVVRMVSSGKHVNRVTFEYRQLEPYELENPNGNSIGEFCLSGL
# [9] = biological target: T5, Corticotropin-releasing factor receptor 2/Corticotropin-releasing factor-binding protein; assay: Dose Response confirmation of uHTS hits for small molecule antagonists of the CRF-binding protein and CRF-R2 receptor complex.; type: functional; settings: read-out: IC50_Mean
# Protein skinhead-1 = biological target: T6, Protein skinhead-1 (Caenorhabditis elegans, UniProt P34707); type: functional
# T6 sequence (P34707 whole entry): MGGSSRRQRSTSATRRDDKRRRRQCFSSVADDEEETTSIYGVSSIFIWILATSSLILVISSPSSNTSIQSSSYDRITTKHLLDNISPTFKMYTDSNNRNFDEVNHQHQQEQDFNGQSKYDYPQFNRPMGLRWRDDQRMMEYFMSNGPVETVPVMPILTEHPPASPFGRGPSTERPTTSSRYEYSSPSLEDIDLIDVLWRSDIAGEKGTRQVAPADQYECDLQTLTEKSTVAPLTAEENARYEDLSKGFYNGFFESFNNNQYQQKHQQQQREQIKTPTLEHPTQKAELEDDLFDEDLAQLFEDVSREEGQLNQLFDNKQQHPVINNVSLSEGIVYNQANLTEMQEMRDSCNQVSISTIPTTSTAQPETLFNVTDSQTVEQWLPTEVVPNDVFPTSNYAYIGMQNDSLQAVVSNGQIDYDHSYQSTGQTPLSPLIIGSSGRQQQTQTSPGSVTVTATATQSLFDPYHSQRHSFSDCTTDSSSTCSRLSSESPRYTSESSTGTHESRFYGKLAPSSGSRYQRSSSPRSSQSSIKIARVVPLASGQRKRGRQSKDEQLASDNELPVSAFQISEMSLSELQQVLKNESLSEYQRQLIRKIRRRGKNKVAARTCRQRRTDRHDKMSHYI
# [10] = viability of uninfected HEp-2 cells – cell-based, HTS, cytotoxicity control for RSV inhibitor project, dose response (AID 2410); type: functional; settings: human respiratory syncytial virus
# Paired box protein Pax-8 = Paired box protein Pax-8 (Homo sapiens, UniProt Q06710); assay: PAX8 transcriptional activity inhibition in RMG-I – RMG-I cells, luciferase, cherry-pick, dose response (AID 687027); type: functional, cell-based;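 note: luciferase reporter driven by Pax8 target thyroperoxidase promoter measured by SteadyGlo luminescence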
# Streptococcus = assay: GAS UMAA2166 growth inhibition – luminescence, BacTiterGlo, counter-screen for streptokinase expression inhibitor project, dose response (AID 1915); type: functional, organism-based;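 note: potency for reduction of bacterial viability or growth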
# [11] = tested on: Streptococcus sp. 'group A'; assay: Streptococcus pyogenes SK(-)GAS viability under kanamycin – luminescence, BacTiterGlo, confirmation, counter-screen for streptokinase expression inhibitor project, dose response (AID 1900); type: functional, organism-based
# Chain of Nonstructural protein 1 (Q194T2 whole entry): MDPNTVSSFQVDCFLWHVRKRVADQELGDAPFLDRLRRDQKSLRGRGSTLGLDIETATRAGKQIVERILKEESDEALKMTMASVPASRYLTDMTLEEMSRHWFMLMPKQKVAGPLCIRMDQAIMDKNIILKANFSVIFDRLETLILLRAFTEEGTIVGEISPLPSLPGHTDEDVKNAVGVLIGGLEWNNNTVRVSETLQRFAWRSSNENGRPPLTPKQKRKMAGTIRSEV
# T1 sequence (P11940 whole entry, the tested form may be a part): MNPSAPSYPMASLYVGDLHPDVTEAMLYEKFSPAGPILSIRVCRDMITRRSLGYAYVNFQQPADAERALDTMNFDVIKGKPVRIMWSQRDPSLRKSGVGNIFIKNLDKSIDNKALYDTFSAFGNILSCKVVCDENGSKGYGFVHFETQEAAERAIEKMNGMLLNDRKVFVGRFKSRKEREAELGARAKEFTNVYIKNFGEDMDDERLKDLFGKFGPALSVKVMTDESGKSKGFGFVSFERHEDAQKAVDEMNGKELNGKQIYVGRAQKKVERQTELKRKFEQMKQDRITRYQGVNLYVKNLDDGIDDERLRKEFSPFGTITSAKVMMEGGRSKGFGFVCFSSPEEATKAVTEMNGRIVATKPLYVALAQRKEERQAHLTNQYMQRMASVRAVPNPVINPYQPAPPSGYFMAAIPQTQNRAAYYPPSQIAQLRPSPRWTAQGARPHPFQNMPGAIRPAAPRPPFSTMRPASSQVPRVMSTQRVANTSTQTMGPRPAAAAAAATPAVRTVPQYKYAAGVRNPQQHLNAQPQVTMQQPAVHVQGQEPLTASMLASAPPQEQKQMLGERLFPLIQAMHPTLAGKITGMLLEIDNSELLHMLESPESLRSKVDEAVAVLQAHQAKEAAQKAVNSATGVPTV
# Chain of Paired box protein Pax-8 (Q06710 whole entry): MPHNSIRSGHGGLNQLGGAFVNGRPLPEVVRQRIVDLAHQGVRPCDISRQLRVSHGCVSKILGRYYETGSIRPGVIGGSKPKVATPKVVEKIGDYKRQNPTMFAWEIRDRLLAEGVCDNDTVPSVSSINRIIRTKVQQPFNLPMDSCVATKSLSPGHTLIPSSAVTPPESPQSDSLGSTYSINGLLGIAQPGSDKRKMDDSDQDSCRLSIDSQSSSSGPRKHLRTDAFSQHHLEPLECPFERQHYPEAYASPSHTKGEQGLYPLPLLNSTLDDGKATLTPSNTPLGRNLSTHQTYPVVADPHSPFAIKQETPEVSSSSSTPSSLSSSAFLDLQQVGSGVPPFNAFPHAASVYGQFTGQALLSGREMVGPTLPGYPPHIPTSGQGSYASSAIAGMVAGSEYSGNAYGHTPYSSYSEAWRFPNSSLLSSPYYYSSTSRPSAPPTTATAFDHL
smiles,measurement,setting,value
COc1ccc(N2CCN(c3c(S(=O)(=O)c4ccccc4)cnc4ccc(OC)cc34)CC2)cc1,AC50,[1],2.76 µM (active)
CCOc1ccc(-n2cc(-c3ccccc3)c3c(=S)[nH]cnc32)cc1,IC50,[2],> 66 µM (inactive)
same,IC50,[3],> 66 µM (inactive)
same,EC50,Streptokinase A,> 150 µM (not active)
CCc1ccc(-c2nc(CSCC(=O)N3CCN(c4ncccn4)CC3)c(C)o2)cc1,EC50,[4],29.8 µM (active)
same,EC50,[5],53.6 µM (active)
O=C(NC(=S)Nc1ccc(CN2CCCCC2)cc1)c1ccco1,IC50,[2],> 66 µM (inactive)
same,IC50,[3],> 66 µM (inactive)
COc1cc([C@H](Cc2ccccc2)NC(C)=O)oc(=O)c1,EC50,[6],38.7 µM (active)
same,EC50,[7],27.9 µM (active)
c1csc(C2Nc3cccc4cccc(c34)N2)c1,IC50,[2],> 66 µM (inactive)
same,IC50,[3],> 66 µM (inactive)
CC1CCc2cc(F)ccc2N1C(=O)CSc1n[nH]c2c3ccccc3nc-2n1 (stereo unspecified),EC50,[4],22.5 µM (active)
same,EC50,[5],19 µM (active)
COc1ccc2cc3cc(C(=O)N4CCN(Cc5ccc6c(c5)OCO6)CC4)oc3nc2c1,IC50,Nonstructural protein 1,> 100 µM (active)
COc1cccc(OCCn2cc(C=O)c3ccccc32)c1,EC50,[6],> 300 µM (not active)
same,EC50,[7],> 300 µM (not active)
CCOC(=O)c1sc(-c2ccc(C(F)(F)F)cc2)nc1O,EC50,[8],11.9 µM (active)
same,IC50,[9],> 47.1 µM (inactive)
same,AC50,[1],3.14 µM (active)
CCOc1ccc(-c2nnc(-c3ccccc3)o2)cc1,IC50,Protein skinhead-1,> 100 µM (inactive)
Fc1ccc(CSc2ncnc3ccccc23)cc1,IC50,Protein skinhead-1,31.8 µM (active)
COc1ccc(S(=O)(=O)NCc2ccc3c(c2)cc(C)n3C)cc1,IC50,[2],> 66 µM (inactive)
same,IC50,[3],> 66 µM (inactive)
same,IC50,Nonstructural protein 1,66.3 µM (active)
Clc1cccc(CSc2ccc(-c3ccco3)nn2)c1,IC50,Protein skinhead-1,99.9 µM (inactive)
same,CC50,[10],> 50 µM (active)
O=C1N=C(N2CCCCC2)S/C1=C/C1=Cc2ccccc2OC1,EC50,[6],> 300 µM (not active)
same,EC50,[7],> 300 µM (not active)
O=C(NC1CCCCCC1)C(=S)NCCc1ccccc1,IC50,[2],> 66 µM (inactive)
same,IC50,[3],> 66 µM (inactive)
Cc1cc(NC(=O)CSc2nnc(-c3ccncc3)n2-c2ccc(F)cc2)no1,IC50,Protein skinhead-1,> 100 µM (inactive)
Oc1ccc(-c2c(-c3ccsc3)sc3ccccc23)cc1,AC50,[1],3.3 µM (active)
O=S(=O)(/C=C/c1ccccc1)NC1CCCCCCC1,AC50,[1],24.7 µM (active)
CN(CC(=O)NCc1ccccn1)S(=O)(=O)c1ccc(Br)cc1,EC50,[6],> 300 µM (not active)
same,EC50,[7],> 300 µM (not active)
CCOC(=O)c1c(NC(=O)C2CCCN(S(=O)(=O)c3ccccc3)C2)sc2c1CCCC2 (stereo unspecified),EC50,[4],73.3 µM (active)
same,EC50,[5],50.9 µM (active)
COc1ccc(Cl)cc1NC(=O)CSc1ncnc2c1oc1ccccc12,EC50,[4],6.22 µM (active)
same,EC50,[5],4.25 µM (active)
Cc1c(N=NC2=C(O)CCCC2=O)c(=O)n(-c2ccccc2)n1C,IC50,Nonstructural protein 1,2.9 µM (active)
CCCOc1ccc(N2C(=O)CC(N(CCc3ccc(OC)cc3)C(=O)c3cccc(F)c3)C2=O)cc1 (stereo unspecified),IC50,Protein skinhead-1,> 100 µM (inactive)
Cc1cc(C2=NN=C(NC3CC3)SC2)c(C)n1-c1ccccc1,EC50,[4],19.5 µM (active)
same,EC50,[5],23.7 µM (active)
COCCN1CCC(CNCc2c[nH]nc2-c2ccc(C)c(C)c2)C1 (stereo unspecified),EC50,[6],> 300 µM (not active)
same,EC50,[7],> 300 µM (inconclusive)
CCOC(=O)c1ccccc1N1C(=O)CSC1=S,IC50,[2],> 66 µM (inactive)
same,IC50,[3],> 66 µM (inactive)
CCCCn1c(NC(=S)Nc2ccccc2)nc2ccccc21,IC50,[2],> 66 µM (inactive)
same,IC50,[3],> 66 µM (inactive)
COc1cccc(CNC(=O)CSc2ccc(-c3ccccn3)nn2)c1,IC50,Nonstructural protein 1,20.6 µM (active)
CCOc1ccccc1NC(=O)Cn1c(=O)oc2cc(Cl)ccc21,IC50,Protein skinhead-1,> 100 µM (inactive)
O=C(COC(=O)CCNS(=O)(=O)c1ccccc1)Nc1ccc(OC(F)F)cc1,IC50,Protein skinhead-1,> 100 µM (inactive)
O=C(N/N=C/c1c[nH]c2ccccc12)c1[nH]c2ccc(Br)cc2c1-c1ccccc1,EC50,[4],0.378 µM (active)
same,EC50,[5],0.412 µM (active)
same,AC50,Paired box protein Pax-8,3.5 µM (active)
same,EC50,Streptococcus,2.22 µM (active)
same,EC50,Streptokinase A,> 150 µM (not active)
same,EC50,[11],1.29 µM (active)
COC(=O)c1ccc(-n2c(C)cc(/C=N/Nc3nc(C)cc(O)n3)c2C)cc1,EC50,[6],> 300 µM (not active)
same,EC50,[7],> 300 µM (not active)
O=C(NCc1ccncc1)C(=O)N/N=C/c1ccccn1,EC50,[6],86.1 µM (active)
same,EC50,[7],24.2 µM (active)
Cc1nn(-c2ccccc2)c(N2CCCC2)c1/C=N/Nc1ccc(S(=O)(=O)Nc2ccccc2)cc1[N+](=O)[O-],EC50,[4],9.37 µM (active)
same,EC50,[5],6.74 µM (active)
O=[N+]([O-])c1ccc(N/N=C2\CC3CC=CC23)c([N+](=O)[O-])c1 (stereo unspecified),IC50,Nonstructural protein 1,35.3 µM (active)
